Our source for the IC50 and selectivity ratio values is ChEMBL document CHEMBL5584231, “Rational design of a new short anticancer peptide with good potential for cancer treatment” (Eur J Med Chem, 2024).

In one data set the test system is HeLa. The data set is described as follows: Cytotoxicity against human HeLa cells assessed as inhibition of cell growth incubated for 1 hr by MTT assay. The class given is functional, cell-based. For orientation: Tetrazolium assays rely on reduction of a dye to a coloured formazan, in cell work by metabolically active cells.
Data set [1] can be described thus: Cytotoxicity against HK-2 cells assessed as inhibition of cell growth incubated for 1 hr by MTT assay. The class given is toxicity, cell-based. To be noted: human.
A further data set relates to A549. The experiment in a line: Cytotoxicity against human A549 cells assessed as inhibition of cell growth incubated for 1 hr by MTT assay. The class given is functional, cell-based. To be noted: A549, 1 h.
A short description of data set [2]: Cytotoxicity against RG cells (unknown origin) assessed as inhibition of cell growth incubated for 1 hr by MTT assay. The class given is functional, cell-based.
The nature of data set [3]: Therapeutic index, ratio of HC10 for mouse RBC to IC50 for cytotoxicity against RG cells (unknown origin). The class given is toxicity, cell-based. The note with it: mouse RBC and RG cells, read-out: TI.
The nature of data set [4]: Therapeutic index, ratio of HC10 for mouse RBC to IC50 for cytotoxicity against human A549 cells. The class given is toxicity, cell-based. The note with it: mouse RBC and A549 cells, read-out: TI.
Data set [5] is described as follows: Therapeutic index, ratio of HC10 for mouse RBC to IC50 for cytotoxicity against human HeLa cells. The class given is toxicity, cell-based. To be noted: mouse RBC and HeLa cells, read-out: TI.
Data set [6] can be described thus: Therapeutic index, ratio of HC10 for mouse RBC to IC50 for cytotoxicity against human MCF7 cells. The class given is toxicity, cell-based. To be noted: mouse RBC and MCF7 cells, read-out: TI.
For another data set, the system named is MCF7. The experiment in a line: Cytotoxicity against human MCF7 cells assessed as inhibition of cell growth incubated for 1 hr by MTT assay. The class given is functional, cell-based. The note with it: MCF7, 1 h.

Structures are written as SMILES. pIC50: −log10 of the molar value. Residues, ends and D or L forms follow the SMILES beside them.

As a reminder, the pIC50 is −log10 of the IC50, conventionally taken in molar units. For orientation: IC50 means the midpoint of a concentration-inhibition curve. For `CC(C)C[C@H](NC(=O)[C@H](CC(C)C)NC(=O)[C@H](CCCCN)NC(=O)[C@H](CCCCN)NC(=O)[C@H](CC(C)C)NC(=O)[C@H](CC(C)C)NC(=O)[C@H](CCCCN)NC(=O)[C@H](CCCCN)NC(=O)[C@H](CC(C)C)NC(=O)[C@H](CC(C)C)NC(=O)[C@H](CCCCN)NC(=O)[C@H](CCC(=O)O)NC(=O)[C@H](CC(C)C)NC(=O)[C@@H](N)CC(C)C)C(N)=O` (H-LLEKLLKKLLKKLL-NH2), the negative logarithm of the IC50 (pIC50) in the data set with HeLa is 5.15; with A549, 5.09; in [2], 4.96; in the data set with MCF7, 4.98. Also, the IC50 at 1 h in data set [1] turned out to be 11 µM. In addition, the selectivity ratio in [3] came out at 0.563; in data set [4], 0.767; in data set [5], 0.883; in data set [6], 0.595.

On to `CC(C)C[C@H](NC(=O)[C@H](CC(C)C)NC(=O)[C@H](CCCCN)NC(=O)[C@H](CCCCN)NC(=O)[C@H](CC(C)C)NC(=O)[C@H](CC(C)C)NC(=O)[C@H](CCCCN)NC(=O)[C@H](CCCCN)NC(=O)[C@H](CC(C)C)NC(=O)[C@H](CC(C)C)NC(=O)[C@H](CCC(=O)O)NC(=O)[C@H](CCCCN)NC(=O)[C@H](CC(C)C)NC(=O)[C@@H](N)CC(C)C)C(N)=O` (H-LLKELLKKLLKKLL-NH2), for which the pIC50 in the data set with HeLa is 4.89; with A549, 4.62; in data set [2] it was 4.74; in the data set on MCF7 it was 4.73. Further, in [1], the IC50 at 1 h is 21.4 µM. The selectivity ratio came out at 1.26 in data set [3], 0.966 in [4], 1.78 in data set [5] and 1.24 in [6].

`CC(C)C[C@H](NC(=O)[C@H](CC(C)C)NC(=O)[C@H](CCCCN)NC(=O)[C@H](CCCCN)NC(=O)[C@H](CC(C)C)NC(=O)[C@H](CC(C)C)NC(=O)[C@H](CCCCN)NC(=O)[C@H](CCCCN)NC(=O)[C@H](CC(C)C)NC(=O)[C@H](CCC(=O)O)NC(=O)[C@H](CCCCN)NC(=O)[C@H](CCCCN)NC(=O)[C@H](CC(C)C)NC(=O)[C@@H](N)CC(C)C)C(N)=O` (H-LLKKELKKLLKKLL-NH2): the pIC50 is 4.84 in the data set with HeLa, 4.76 with A549, 4.62 in [2] and 4.67 in the data set on MCF7. Besides, the IC50 at 1 h in data set [1] stood at 37.3 µM. The selectivity ratio in [3] came to 7.14; in [4], 9.94; in data set [5] it was 12; in data set [6] it was 8.02.

With `CC(C)C[C@H](NC(=O)[C@H](CC(C)C)NC(=O)[C@H](CCCCN)NC(=O)[C@H](CCCCN)NC(=O)[C@H](CC(C)C)NC(=O)[C@H](CC(C)C)NC(=O)[C@H](CCCCN)NC(=O)[C@H](CCCCN)NC(=O)[C@H](CCC(=O)O)NC(=O)[C@H](CC(C)C)NC(=O)[C@H](CCCCN)NC(=O)[C@H](CCCCN)NC(=O)[C@H](CC(C)C)NC(=O)[C@@H](N)CC(C)C)C(N)=O` (H-LLKKLEKKLLKKLL-NH2), the negative-log IC50 (pIC50) was 3.98 in the data set on HeLa, 3.28 in the data set with A549, 3.38 in data set [2] and 3.69 with MCF7. For the same molecule, the half-inhibitory concentration (IC50) at 1 h in [1] was 264 µM. The selectivity ratio worked out at 1.2 in [3], 0.943 in [4], 4.8 in [5] and 2.47 in data set [6].

For `CC(C)C[C@H](NC(=O)[C@H](CC(C)C)NC(=O)[C@H](CCCCN)NC(=O)[C@H](CCCCN)NC(=O)[C@H](CC(C)C)NC(=O)[C@H](CC(C)C)NC(=O)[C@H](CCCCN)NC(=O)[C@H](CCC(=O)O)NC(=O)[C@H](CC(C)C)NC(=O)[C@H](CC(C)C)NC(=O)[C@H](CCCCN)NC(=O)[C@H](CCCCN)NC(=O)[C@H](CC(C)C)NC(=O)[C@@H](N)CC(C)C)C(N)=O` (H-LLKKLLEKLLKKLL-NH2), the negative-log IC50 (pIC50) in the data set with HeLa was 5.54; with A549 it was 5.41; in data set [2], 5.35; in the data set with MCF7 it was 5.33. Further, the IC50 at 1 h in data set [1] came out at 4.9 µM. For the same molecule, the selectivity ratio in data set [3] came to 2.18; in [4], 2.49; in data set [5], 3.41; in data set [6], 2.1.
